The subject of data set [1] is 293 cells. Kind of data set: Test Example 12: cytotoxicity, LDH activity in culture supernatant. The conditions noted are these: concentration of at least about 0.3 μM or less. It is filed as cell-based.
Protocol: (§4) After stirring 10 mL of deactivated FBS and 2 mL of a 50% (w/v %) Poly(ethylene glycol) 10,000 solution (#81280 available from Sigma-Aldrich Co., LLC) at 4° C. for 2 hours, extracellular vesicles were precipitated under the centrifugation conditions of 1,500×g at 4° C. for 30 minutes, and the supernatant was recovered to prepare Exosome-free FBS. Next, 293 cells (CRL-1573TM available from ATCC) or 293T cells (CRL-3216TM available from ATCC) were suspended in Advanced DMEM (#12491015 available from Thermo Fisher Scientific K.K.) containing 2% (v/v %) Exosome-free FBS with 2×10^4 cells/200 μL, seeded on an adhesive surface 96-well plate (#3595 manufactured by Corning Inc.), and pre-culture for 24 hours was carried out. […] The activity of lactate dehydrogenase (LDH) contained in the culture supernatant was measured using
(§5) Cytotoxicity LDH Assay Kit-WST (#CK12 manufactured by Dojindo Laboratories). […] The reaction was stopped by adding 25 μL of Stop Solution, and the cytotoxicity was evaluated by measuring the absorbance at 490 nm. The activities of LDH of the dead cell group (sample to which 20 μL of Lysis Buffer was added to compound-untreated cells 15 minutes before recovery of the culture solution) and the culture solution (culture solution in which no cell culture was carried out) were also measured in the same manner, and cytotoxicity of each compound was evaluated.
For data set [2], the system named is U-87 MG cells. The conditions noted are these: concentration of at least about 2 μM or less. As for the experimental part: After stirring 10 mL of deactivated FBS and 2 mL of a 50% (w/v %) Poly(ethylene glycol) 10,000 solution (#81280 available from Sigma-Aldrich Co., LLC) at 4° C. for 2 hours, extracellular vesicles were precipitated under the centrifugation conditions of 1,500×g at 4° C. for 30 minutes, and the supernatant was recovered to prepare Exosome-free FBS.

In data set [3] the test system is 293T cells. Briefly: Test Example 12: cytotoxicity, LDH activity in culture supernatant. It is filed as cell-based. The settings on record: concentration of at least about 0.3 μM or less.
Protocol: as §4, §5
Data set [4] concerns U-87 MG cells. Kind of data set: Test Example 1: promotion of secretion of extracellular vesicles, Tim4-CD9 / Tim4-CD63 ELISA of culture supernatant. It is filed as cell-based. The settings on record: 24 hours. As for the experimental part:
For the detection of extracellular vesicles contained in the culture supernatant, the Tim4-CD63 ELISA method or Tim4-CD9 ELISA method mentioned later was used.
To a 384-well plate (#464718 manufactured by Thermo Fisher Scientific K.K.) was added 1 μg/mL Tim4 protein prepared in Carbonate Buffer (a solution containing 71.4 mM NaHCO3 and 28.6 mM Na2CO3), and it was made a solid phase. The 384-well plate was washed with a 0.05% (v/v %) Tween 20-containing TBS (Tris-Buffer Saline) solution (hereinafter sometimes referred to as “TBST solution”), and then, 50 μL/well of a TBST solution containing 1% (w/v %) BSA was added thereto to carry out a blocking treatment for 1 hour. Next, 30 μL of the culture supernatant recovered above was added to the well, and further 10 μL of an 8 mM CaCl2) solution was added thereto to bind extracellular vesicles to the Tim4 protein. At this time, as a comparative object, a compound-untreated culture supernatant (solvent alone, control) was added to the Tim4 protein solid-phased plate in the same manner. Subsequently, 30 μL/well of 1 μg/mL Anti-human CD63 Antibody (#353014 available from BioLegend Inc.) diluted with a TBST solution containing 2 mM CaCl2) was added thereto and the mixture was reacted for 1 hour. To the mixture was added 50 μL/well of a TBST solution containing 2 mM CaCl2), and then, the TBST solution was removed. After repeating this operation three times, 30 μL/well of 80 ng/mL HRP-conjugated Anti-mouse IgG (#405306 available from BioLegend Inc.) diluted with a TBST solution containing 2 mM CaCl2) was added thereto and the mixture was reacted for 1 hour. Finally, 30 μL/well of a TMB solution (#05298-80 available from Nacalai Tesque Inc.) was added to the mixture and the mixture was reacted for 30 minutes, and then, 30 μL/well of a 1M H2504 solution was added thereto to stop the reaction and by measuring an absorbance at 450 nm to detect the amount of the extracellular vesicles. A relative value when the compound-untreated group (control) was made 1 was calculated. […]
In general terms: ELISA stands for enzyme-linked immunosorbent assay.

For data set [5], the system named is 293 cells. Kind of data set: Test Examples 10 and 11: promotion of secretion of extracellular vesicles, Tim4-CD63 / Tim4-CD81 ELISA and nanoparticle tracking analysis. It is filed as cell-based. The conditions noted are these: final concentration 0 to 1 μM, 24 hours. As for the experimental part:
(§1) After stirring 10 mL of deactivated FBS and 2 mL of a 50% (w/v %) Poly(ethylene glycol) 10,000 solution (#81280 available from Sigma-Aldrich Co., LLC) at 4° C. for 2 hours, extracellular vesicles were precipitated under the centrifugation conditions of 1,500×g at 4° C. for 30 minutes, and the supernatant was recovered to prepare Exosome-free FBS. Next, 293 cells (CRL-1573TM available from ATCC) or 293T cells (CRL-3216TM available from ATCC) were suspended in Advanced DMEM (#12491015 available from Thermo Fisher Scientific K.K.) containing 2% (v/v %) Exosome-free FBS with 2×10^4 cells/200 μL, seeded on an adhesive surface 96-well plate (#3595 manufactured by Corning Inc.) and pre-culture was carried out for 24 hours. After 24 hours, the culture solution was removed, a mixed solution of 199.5 μL of 2% (v/v %) Exosome-free FBS-containing Advanced DMEM and 0.5 μL (final concentration: 0 to 1 μM) of the compound of Example 1, 5 or 9 prepared in DMSO was added thereto, and the cells were cultured for 24 hours. Thereafter, the culture solution was recovered in a 1.5 mL tube, the cells were precipitated under centrifugation conditions of 300×g at 4° C. for 5 minutes, and the culture supernatant was recovered. Subsequently, the recovered culture supernatant was subjected to centrifugation under the conditions of 2,000×g at 4° C. for 20 minutes to precipitate cell fragments, and the supernatant was recovered. Further, the recovered supernatant was subjected to centrifugation under the conditions of 10,000×g at 4° C. for 30 minutes, and the supernatant was recovered. For detection of the extracellular vesicles contained in the supernatant after centrifugation of 10,000×g, Tim4-human CD63 ELISA method and Tim4-human CD81ELISA method mentioned later was used.
(§2) <Tim4-Human CD63 ELISA Method>100 μL/well of 1 μg/mL Tim4 protein prepared in Carbonate Buffer (solution containing 71.4 mM NaHCO3 and 28.6 mM Na2CO3) was added to a 96-well plate (#3801-096 manufactured by IWAKI & CO., LTD.) and made it a solid phase. After washing the 96-well plate with a TBST solution, 200 μL/well of the TBST solution containing 1% (w/v %) BSA was added thereto and a blocking treatment for 1 hour was carried out. Next, 90 μL of the supernatant recovered as mentioned above was added to the well, and 10 μL of a 20 mM CaCl2) solution was further added to bind the extracellular vesicles to the Tim4 protein. Subsequently, 100 μL/well of 1 μg/mL Anti-human CD63 Antibody (#353014 available from BioLegend Inc.) diluted with the TBST solution containing 2 mM CaCl2) was added thereto and the reaction was carried out for 1 hour. 200 μL/well of the TBST solution containing 2 mM CaCl2) was added thereto, and thereafter, the TBST solution was removed. […]

For data set [6], the system named is 293T cells. The description is as above. It is filed as cell-based. The settings on record: final concentration 0 to 1 μM, 24 hours. On the procedure: as §1, §2
The subject of data set [7] is 293 cells. Kind of data set: Test Example 13: cell proliferation activity, Cell Count Reagent SF. It is filed as cell-based. On the procedure:
(§3) After 30 minutes, absorbance at 450 nm was measured to evaluate cell proliferation activity.

In data set [8] the test system is 293T cells. Described as above. It is filed as cell-based. As for the experimental part: as §3
The mark [9] stands for this setting: concentration of at least about 0.3 μM or less.
Setting [10] is: concentration of at least about 0.03 μM (30 nM) or less.

In the case of `CC(=O)O.Cc1cc2c(C(C)C)c(O)c(O)c(C=O)c2c(O)c1-c1c(C)cc2c(C(C)C)c(O)c(O)c(C=O)c2c1O` (racemic) [Example 1, (±)-Gossypol Acetate], the “cytotoxicity (LDH amount in the culture supernatant)” value in the data set with 293 cells [1] and in the data set on 293T cells [3] was “low cytotoxicity” each time. For the same molecule, in the data set on U-87 MG cells [2], the “cytotoxicity to U-87 MG cells (LDH amount in the culture supernatant)” value is “low”. The “secretion of CD9 and/or CD63-positive extracellular vesicles” value in the data set with U-87 MG cells [4] (10 μM) was “strongly promoted secretion”. For the same molecule, the “amount of secretion of CD63 and/or CD81-positive extracellular vesicles” value in the data set with 293 cells [5] and in the data set with 293T cells [6] was “promotes” each time. Moreover, the “effect on the proliferative activity” value with 293 cells [7] (setting [9]) and in the data set with 293T cells [8] (setting [9]) was “do not significantly affect” throughout.
In the case of `COC1=CC(c2cc3ccccc3[nH]2)=N/C1=C\c1[nH]c(C)cc1C.CS(=O)(=O)O` [Example 5, Obatoclax Mesylate], the “secretion of CD9 and/or CD63-positive extracellular vesicles” value in the data set on U-87 MG cells [4] (5 μM) was “promotes secretion”. The “secretion of CD63-positive extracellular vesicles” value in the data set on U-87 MG cells [4] (5 μM) is “strongly promoted secretion”. The “amount of secretion of CD63 and/or CD81-positive extracellular vesicles” value in the data set on 293 cells [5] and in the data set with 293T cells [6] was “promotes” in each case. For the same molecule, the “effect on the proliferative activity” value in the data set with 293 cells [7] (setting [10]) and in the data set on 293T cells [8] (setting [10]) was “do not significantly affect” each time.

The values above are taken from patent US20220162561A1, “COMPOSITION FOR PROMOTING SECRETION OF EXTRACELLULAR VESICLES” (priority 2019, published 2022).
